For 15 compounds, IC50 results are on record in patent publication US20200255478A1, “NOVEL COMPOUNDS ACTIVATING THE NRF2 PATHWAY” (Almirall, S.A., priority 2017, published 2020).

Starred links: 1 amine or outer side, 2 acyl side, 3 side chain; linkers in the order of their positions; H or OH if unused. Positions of bridges follow the written chain, without caps; N, C: chain ends. Non-standard residues stand in square brackets, D forms with d. Residues, ends and D or L forms follow the SMILES beside them. *: point of attachment. Trp(2-yl) = O=C([C@H](Cc1c([*:3])[nH]c2ccccc12)N[*:1])[*:2]; Phe(4-yl) = O=C([C@H](Cc1ccc([*:3])cc1)N[*:1])[*:2]; Pyridine(2,6-diCH2) = c1cc(C[*:1])nc(C[*:2])c1; Pyridine(3,5-bisCH2) = c1ncc(C[*:2])cc1C[*:1]; X1 = O=C([C@@H]1C[C@H](N[*:3])CN1[*:1])[*:2]; X8 = O=C([C@H](Cc1cccc([*:3])c1)N[*:1])[*:2]; X7 = c1ccc(-c2ccccc2C[*:2])c(C[*:1])c1; mXylylene = c1cc(C[*:1])cc(C[*:2])c1; oXylylene = c1ccc(C[*:2])c(C[*:1])c1; X6 = c1ccc2nc(C[*:2])c(C[*:1])nc2c1; Stearoyl = CCCCCCCCCCCCCCCCCC(=O)*; pXylylene = c1cc(C[*:2])ccc1C[*:1]; βAla = NCCC(=O)O

As a reminder, the IC50 is the point on the concentration scale where inhibition reaches its midpoint.

For the first test, the target named is Keap1-Maltose Binding Protein (MBP tag) (Homo sapiens, UniProt Q14145). Nature of the test: Nrf2-Keap1 HTRF (TR-FRET) binding assay: displacement of biotinylated ETGE peptide from Keap1-MBP.
Chain of Keap1-Maltose Binding Protein (MBP tag) (Q14145 whole entry): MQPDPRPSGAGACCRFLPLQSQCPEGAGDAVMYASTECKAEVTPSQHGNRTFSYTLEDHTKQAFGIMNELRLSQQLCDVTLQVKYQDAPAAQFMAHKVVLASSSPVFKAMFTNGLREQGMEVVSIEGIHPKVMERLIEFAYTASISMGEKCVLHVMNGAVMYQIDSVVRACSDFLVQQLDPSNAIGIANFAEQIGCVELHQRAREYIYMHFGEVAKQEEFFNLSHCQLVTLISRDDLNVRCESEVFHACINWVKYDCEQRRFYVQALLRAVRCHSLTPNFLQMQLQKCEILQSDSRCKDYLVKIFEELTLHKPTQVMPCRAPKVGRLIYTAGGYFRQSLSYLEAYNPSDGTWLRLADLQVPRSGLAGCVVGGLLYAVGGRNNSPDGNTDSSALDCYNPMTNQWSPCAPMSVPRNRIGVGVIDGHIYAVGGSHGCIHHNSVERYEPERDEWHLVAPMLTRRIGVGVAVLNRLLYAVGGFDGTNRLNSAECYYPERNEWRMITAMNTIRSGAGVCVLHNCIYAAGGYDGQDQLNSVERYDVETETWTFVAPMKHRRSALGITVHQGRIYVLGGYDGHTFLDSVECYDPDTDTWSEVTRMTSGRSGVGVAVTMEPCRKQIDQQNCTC
Conditions: not given
In general terms: In TR-FRET formats the signal depends on donor and acceptor labels being close together.
As for `CCCCCCCCCCCCCCCCCC(=O)N[C@H]1C[C@H]2C(=O)N[C@@H](CCC(N)=O)C(=O)N[C@H]3CSCc4cccc(c4)CSC[C@H](NC(=O)[C@H](CCC(=O)O)NC(=O)CNC(=O)[C@H]([C@@H](C)O)NC(=O)[C@H](CCC(=O)O)NC(=O)[C@@H]4CCCN4C(=O)[C@H](CC(=O)O)NC3=O)C(=O)N[C@@H](CC(C)C)C(=O)N3CCC[C@@H]3C(=O)N2C1` [Example 74, {[&^1Pro((4S)-NH-Stearyl)-Gln-Cys(&^2)-Asp-Pro-Glu-Thr-Gly-Glu-Cys(&^3)-Leu-D-Pro&^1][&^2(1,3-phenylenediyl)dimethylene&^3]}], the 50% inhibitory concentration (IC50) is under 1 nM.

On to `CCCCCCCCCCCCCCCCCC(=O)N[C@H]1C[C@H]2C(=O)N[C@@H](CCC(N)=O)C(=O)N[C@H]3CSCc4ccccc4CSC[C@H](NC(=O)[C@H](CCC(=O)O)NC(=O)CNC(=O)[C@H]([C@@H](C)O)NC(=O)[C@H](CCC(=O)O)NC(=O)[C@@H]4C[C@H](N)CN4C(=O)[C@H](CC(=O)O)NC3=O)C(=O)N[C@@H](CC(C)C)C(=O)N3CCC[C@@H]3C(=O)N2C1` [Example 73, {[&^1Pro((4S)-NH-Stearyl)-Gln-Cys(&^2)-Asp-Pro((4S)-NH2)-Glu-Thr-Gly-Glu-Cys(&^3)-Leu-D-Pro&^1][&^2(1,2-phenylenediyl)dimethylene&^3]}], for which the 50% inhibitory concentration (IC50) lay within 1 to 100 nM.

With `CCCCCCCCCCCCCCCCCC(=O)N1CCC[C@H]1C(=O)N[C@@H](CCC(N)=O)C(=O)N[C@H]1CSCc2ccccc2CSC[C@@H](C(=O)N[C@@H](CC(C)C)C(=O)N2CCC[C@@H]2C(N)=O)NC(=O)[C@H](CCC(=O)O)NC(=O)CNC(=O)[C@H]([C@@H](C)O)NC(=O)[C@H](CCC(=O)O)NC(=O)[C@@H]2CCCN2C(=O)[C@H](CC(=O)O)NC1=O` [Example 76, {[Stearyl-Pro-Gln-Cys(&^1)-Asp-Pro-Glu-Thr-Gly-Glu-Cys(&^2)-Leu-D-Pro-NH2][&^1(1,2-phenylenediyl)dimethylene^2]}] (Stearoyl-PQCDPETGECL[dP]-NH2; linker 3-10 via oXylylene), the IC50 was 1 to 100 nM.

`CCCCCCCCCCCCCCCCCC(=O)NCCCC[C@@H]1NC(=O)[C@H]2CCCN2C(=O)[C@H](CC(C)C)NC(=O)[C@@H]2CSCc3ccccc3CSC[C@H](NC(=O)[C@H](CCC(N)=O)NC1=O)C(=O)N[C@@H](CC(=O)O)C(=O)N1CCC[C@H]1C(=O)N[C@@H](CCC(=O)O)C(=O)N[C@@H]([C@@H](C)O)C(=O)NCC(=O)N[C@@H](CCC(=O)O)C(=O)N2` [Example 91, {[&^1Lys(N^6-Stearyl)-Gln-Cys(&^2)-Asp-Pro-Glu-Thr-Gly-Glu-Cys(&^3)-Leu-D-Pro&^1][&^2(1,2-phenylenediyl)dimethylene&^3]}] gave a 50% inhibitory concentration (IC50) of under 1 nM.

In the case of `CC(=O)N[C@H]1Cc2c([nH]c3ccccc23)SC[C@@H](C(N)=O)NC(=O)[C@H](CCC(=O)O)NC(=O)CNC(=O)[C@H]([C@@H](C)O)NC(=O)[C@H](CCC(=O)O)NC(=O)[C@H](CCC(=O)O)NC(=O)[C@H](CC(=O)O)NC1=O` [Example 7, Acetyl-Trp(indol-2-yl-&^1)-Asp-Glu-Glu-Thr-Gly-Glu-Cys(&^1)-NH2] (Ac-[Trp(2-yl)]DEETGEC-NH2; thioether 1-8), the IC50 lay within 1 to 100 nM.

The test is the same for the next values; noted with them: HTRF (TR-FRET); displacement of ETGE-biotin from Keap1-MBP; values banded into grades; read-out: Binding (IC50) ETGE-Keap1.
As to `CC(=O)N[C@H]1CSCc2ccccc2CSC[C@@H](C(N)=O)NC(=O)[C@H](CCC(=O)O)NC(=O)CNC(=O)[C@H]([C@@H](C)O)NC(=O)[C@H](CCC(=O)O)NC(=O)[C@H](C)N(C)C(=O)[C@H](CC(=O)O)NC1=O` [Example 43, {[Acetyl-Cys(&^1)-Asp-MeAla-Glu-Thr-Gly-Glu-Cys(&^2)-NH2][&^1(1,2-phenylenediyl)dimethylene&^2]}], the half-maximal inhibitory concentration (IC50) fell in the range of 1 to 100 nM.

As for `CCCCCCCCCCCCCCCCCC(=O)NCCC(=O)N[C@@H](CC(C)C)C(=O)N[C@@H](CCC(N)=O)C(=O)N[C@H]1CSCc2cncc(c2)CSC[C@@H](C(=O)N[C@@H](CC(C)C)C(=O)N2CCC[C@H]2C(N)=O)NC(=O)[C@H](CCC(=O)O)NC(=O)CNC(=O)[C@H]([C@@H](C)O)NC(=O)[C@H](CCC(=O)O)NC(=O)[C@@H]2CCCN2C(=O)[C@H](CC(=O)O)NC1=O` [Example 65, {[Stearyl-βAla-Leu-Gln-Cys(&^1)-Asp-Pro-Glu-Thr-Gly-Glu-Cys(&^2)-Leu-Pro-NH2][&^1(pyridine)3,5-diyldimethylene&^2]}] ({Stearoyl-βAla}-LQCDPETGECLP-NH2; linker 3-10 via Pyridine(3,5-bisCH2)), the IC50 is under 1 nM.

`CC(=O)N[C@H]1CSCc2nc3ccccc3nc2CSC[C@@H](C(N)=O)NC(=O)[C@H](CCC(=O)O)NC(=O)CNC(=O)[C@H]([C@@H](C)O)NC(=O)[C@H](CCC(=O)O)NC(=O)[C@H](CCC(=O)O)NC(=O)[C@H](CC(=O)O)NC1=O` [Example 26, {[Acetyl-Cys(&^1)-Asp-Glu-Glu-Thr-Gly-Glu-Cys(&^2)-NH2][&^1(quinoxaline)2,3-diyldimethylene&^2]}] (Ac-CDEETGEC-NH2; linker 1-8 via X6): the IC50 is 1 to 100 nM.

For the compound `CC(=O)N[C@H]1CSCc2ccccc2-c2ccccc2CSC[C@@H](C(N)=O)NC(=O)[C@H](CCC(=O)O)NC(=O)CNC(=O)[C@H]([C@@H](C)O)NC(=O)[C@H](CCC(=O)O)NC(=O)[C@H](CCC(=O)O)NC(=O)[C@H](CC(=O)O)NC1=O` [Example 24, {[Acetyl-Cys(&^1)-Asp-Glu-Glu-Thr-Gly-Glu-Cys(&^2)-NH2][&^1(1,1′-biphenyl)2,2′-diyldimethylene&^2]}] (Ac-CDEETGEC-NH2; linker 1-8 via X7), the IC50 was in the range of 1 to 100 nM.

Turning to `CCCCCCCCCCCCCCCCCC(=O)NCCC(=O)N[C@@H](CC(C)C)C(=O)N[C@@H](CCC(N)=O)C(=O)N[C@H]1CSCc2cccc(n2)CSC[C@@H](C(=O)N[C@@H](CC(C)C)C(=O)N2CCC[C@H]2C(N)=O)NC(=O)[C@H](CCC(=O)O)NC(=O)CNC(=O)[C@H]([C@@H](C)O)NC(=O)[C@H](CCC(=O)O)NC(=O)[C@@H]2CCCN2C(=O)[C@H](CC(=O)O)NC1=O` [Example 62, {[Stearyl-βAla-Leu-Gln-Cys(&^1)-Asp-Pro-Glu-Thr-Gly-Glu-Cys(&^2)-Leu-Pro-NH2][&^1(pyridine)2,6-diyldimethylene&^2]}] ({Stearoyl-βAla}-LQCDPETGECLP-NH2; linker 3-10 via Pyridine(2,6-diCH2)), the IC50 is 1 to 100 nM.

Take `CC(=O)N[C@H]1Cc2ccc(cc2)SC[C@@H](C(N)=O)NC(=O)[C@H](CCC(=O)O)NC(=O)CNC(=O)[C@H]([C@@H](C)O)NC(=O)[C@H](CCC(=O)O)NC(=O)[C@H](CCC(=O)O)NC(=O)[C@H](CC(=O)O)NC1=O` [Example 10, Acetyl-Phe(p-&^1)-Asp-Glu-Glu-Thr-Gly-Glu-Cys(&^1)-NH2] (Ac-[Phe(4-yl)]DEETGEC-NH2; thioether 1-8): the IC50 lay within 100 to 5000 nM.

As for `CCCCCCCCCCCCCCCCCC(=O)N[C@H]1C[C@H]2C(=O)N[C@@H](CCC(N)=O)C(=O)N[C@H]3CSCc4ccccc4CSC[C@H](NC(=O)[C@H](CCC(=O)O)NC(=O)CNC(=O)[C@H]([C@@H](C)O)NC(=O)[C@H](CCC(=O)O)NC(=O)[C@H](CCCNC(=N)N)NC(=O)[C@H](CC(=O)O)NC3=O)C(=O)N[C@@H](CC(C)C)C(=O)N3CCC[C@@H]3C(=O)N2C1` [Example 70, {[&^1Pro((4S)-NH-Stearyl)-Gln-Cys(&^2)-Asp-Arg-Glu-Thr-Gly-Glu-Cys(&^3)-Leu-D-Pro&^1][&^2(1,2-phenylenediyl)dimethylene&^2]}] (cyclo(CDRETGECL[dP][X1](Stearoyl)Q); linker 1-8 via oXylylene), the half-inhibitory concentration (IC50) is under 1 nM.

With `CC(C)C[C@H](NC(=O)[C@@H]1CSCc2ccc(cc2)CSC[C@H](NC(=O)[C@H](CCC(N)=O)NC(=O)[C@@H](N)CC(C)C)C(=O)N[C@@H](CC(=O)O)C(=O)N[C@@H](CCC(=O)O)C(=O)N[C@@H](CCC(=O)O)C(=O)N[C@@H]([C@@H](C)O)C(=O)NCC(=O)N[C@@H](CCC(=O)O)C(=O)N1)C(=O)N1CCC[C@H]1C(=O)O` [Example 2, {[H-Leu-Gln-Cys(&^1)-Asp-Glu-Glu-Thr-Gly-Glu-Cys(&^2)-Leu-Pro-OH][&^1(1,4-phenylenediyl)dimethylene&^2]}] (H-LQCDEETGECLP-OH; linker 3-10 via pXylylene), the IC50 fell in the range of 100 to 5000 nM.

Take `CC(C)C[C@H](NC(=O)[C@@H]1CSCc2cccc(c2)CSC[C@H](NC(=O)[C@H](CCC(N)=O)NC(=O)[C@@H](N)CC(C)C)C(=O)N[C@@H](CC(=O)O)C(=O)N[C@@H](CCC(=O)O)C(=O)N[C@@H](CCC(=O)O)C(=O)N[C@@H]([C@@H](C)O)C(=O)NCC(=O)N[C@@H](CCC(=O)O)C(=O)N1)C(=O)N1CCC[C@H]1C(=O)NCCC(=O)N[C@@H](Cc1ccc(O)cc1)C(=O)N[C@@H](C)C(=O)N[C@@H](CCCNC(=N)N)C(=O)N[C@@H](C)C(=O)N[C@@H](C)C(=O)N[C@@H](C)C(=O)N[C@@H](CCCNC(=N)N)C(=O)N[C@@H](CCC(N)=O)C(=O)N[C@@H](C)C(=O)N[C@@H](CCCNC(=N)N)C(=O)N[C@@H](C)C(N)=O` [Example 13] (H-LQCDEETGECLP[βAla]YARAAARQARA-NH2; linker 3-10 via mXylylene): the IC50 lay in the range of 1 to 100 nM.

As to `CCCCCCCCCCCCCCCCCC(=O)NCCC(=O)N[C@@H](CC(C)C)C(=O)N[C@@H](CCC(N)=O)C(=O)N[C@H]1Cc2cccc(c2)SC[C@@H](C(=O)N[C@@H](CC(C)C)C(=O)N2CCC[C@H]2C(=O)O)NC(=O)[C@H](CCC(=O)O)NC(=O)CNC(=O)[C@H]([C@@H](C)O)NC(=O)[C@H](CCC(=O)O)NC(=O)[C@@H]2CCCN2C(=O)[C@H](CC(=O)O)NC1=O` [Example 40, Stearyl-βAla-Leu-Gln-Phe(m-&^1)-Asp-Pro-Glu-Thr-Gly-Glu-Cys(&^1)-Leu-Pro-OH] ({Stearoyl-βAla}-LQ[X8]DPETGECLP-OH; thioether 3-10), the half-maximal inhibitory concentration (IC50) was 1 to 100 nM.
